Assay [1] addresses T1, full length recombinant Pim-1 protein (Homo sapiens, UniProt P11309).
T1 construct: by full length recombinant Pim-1, Pim-2, or Pim-3 protein; hexahistidine tag followed by a thrombin cleavage site (N); made in house; host or cells: Sf9 (baculovirus) or E. coli (pET28)
Nature of the assay: Pim-1 enzyme assay (HTRF, phosphorylation of biotinylated-BAD (S112) peptide). In kind it is biochemical. The following applies: enzyme assay, Pim-1; read-out: Pim_1_IC50. In short, it runs like this: (§1)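 Recombinant full-length Pim-1 or Pim-2 was incubated with biotinylated BAD (S112) peptide in pH 7.0 Hepes buffer with BSA and DTT. After an EDTA stop, phosphopeptide was quantified by time-resolved FRET between a europium antibody and streptavidin-APC, and IC50 values came from 4-parameter logistic curves.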
(In general: Time-resolved FRET reads energy transfer from a long-lived donor to a nearby acceptor.)

Assay [2] addresses T2, full length recombinant Pim-3 protein (Homo sapiens, UniProt Q86V86).
T2 construct: by full length recombinant Pim-1, Pim-2, or Pim-3 protein; purchased Millipore (UK)
The assay is described as follows: Pim-3 enzyme assay (HTRF, phosphorylation of biotinylated-BAD (S112) peptide). The following applies: read-out: Pim3 IC50. Type of assay: biochemical. Put shortly:
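HTRF read-out, streptavidin-APC plus Eu-labelled anti-phospho-BAD (S112) antibody, measures BAD peptide phosphorylation by full-length recombinant Pim-3. Buffer: 60 mM Hepes pH 7.0, 2 mM DTT, 0.05% BSA; EDTA (3 mM) stop. Percent of control per well, IC50 by 4-parameter logistic fit.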

For assay [3], the target named is T3, Pim-1 stably transfected into the U2OS human osteogenic sarcoma line (Homo sapiens, UniProt P11309).
T3 construct: expressed in transfected cells; host or cells: U2OS human osteogenic sarcoma line
The assay is described as follows: Pim cell assay, phospho-BAD normalized against total BAD, U2OS stably transfected with Pim-1. In kind it is cell-based. The following applies: read-out: Pim1_Cell_IC50. Put shortly: (§2)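 Read-out is phospho-BAD relative to total BAD, by MSD electrochemiluminescence on lysates, expressed as % phosphoprotein = (2×phospho)/(phospho+total)×100. Engineered U2OS lines carrying stably transfected Pim-1 or Pim-2 received 10-point compound dilutions at 0.3% final DMSO after overnight culture at 37 °C; DMSO-only wells served as high control.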

The target in assay [4] is T4, full length recombinant Pim-2 protein (Homo sapiens, UniProt Q9P1W9).
T4 construct: by full length recombinant Pim-1, Pim-2, or Pim-3 protein; hexahistidine tag followed by a thrombin cleavage site (N); made in house; host or cells: Sf9 (baculovirus) or E. coli (pET28)
The assay is described as follows: Pim-2 enzyme assay (HTRF, phosphorylation of biotinylated-BAD (S112) peptide). Type of assay: biochemical. The following applies: enzyme assay, Pim-2; read-out: Pim2_IC50. In short, it runs like this: as §1

For assay [5], the target named is T5, Pim-2 stably transfected into the U2OS human osteogenic sarcoma line (Homo sapiens, UniProt Q9P1W9).
T5 construct: expressed in transfected cells; host or cells: U2OS human osteogenic sarcoma line
Nature of the assay: Pim cell assay, phospho-BAD normalized against total BAD, U2OS stably transfected with Pim-2. Also: high dose 31.6 µM. Type of assay: cell-based. The following applies: read-out: Pim2_Cell_IC50. In short, it runs like this:
as §2

[6] abbreviates: U2OS cells stably transfected with Pim-1, phospho-BAD, high dose […].
The mark [7] stands for this setting: U2OS cells stably transfected with Pim-2, phospho-BAD, high dose […].

From patent publication US9090593B2, “Bicyclic compounds as Pim inhibitors” (AMGEN INC., priority 2010, dated 2015) come the findings set out here.

Each structure is given as a SMILES string. Where two headings read alike, the source gives them in different places.

T5 sequence (Q9P1W9 whole entry): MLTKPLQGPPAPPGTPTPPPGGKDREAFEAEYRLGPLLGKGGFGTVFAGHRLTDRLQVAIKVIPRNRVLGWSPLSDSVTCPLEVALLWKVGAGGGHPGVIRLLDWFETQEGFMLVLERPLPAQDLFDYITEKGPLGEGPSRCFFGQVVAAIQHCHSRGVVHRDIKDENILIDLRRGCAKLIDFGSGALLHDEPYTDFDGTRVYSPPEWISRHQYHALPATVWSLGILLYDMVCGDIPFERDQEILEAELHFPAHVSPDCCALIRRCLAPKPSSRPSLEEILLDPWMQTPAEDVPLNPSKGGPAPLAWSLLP
T4 sequence (Q9P1W9 whole entry): as above
T3 sequence (P11309 whole entry): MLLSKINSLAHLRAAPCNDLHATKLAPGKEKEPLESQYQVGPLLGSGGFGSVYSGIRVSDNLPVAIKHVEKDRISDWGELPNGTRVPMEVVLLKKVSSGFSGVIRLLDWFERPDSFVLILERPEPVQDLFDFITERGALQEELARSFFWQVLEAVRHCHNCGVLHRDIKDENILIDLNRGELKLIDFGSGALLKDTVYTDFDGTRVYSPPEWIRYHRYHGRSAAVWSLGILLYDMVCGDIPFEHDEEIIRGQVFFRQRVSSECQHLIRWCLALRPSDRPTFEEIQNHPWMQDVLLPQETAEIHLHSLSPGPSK
T1 sequence (P11309 whole entry): as above

With `Fc1cccc(F)c1-c1ccc2[nH]nc(-c3cncc(OC4CCNC4)n3)c2c1` (stereo not drawn) [Example 187, 5-(2,6-difluorophenyl)-3-(6-(3-pyrrolidinyloxy)-2-pyrazinyl)-1H-indazole], the IC50 in assay [1] came to 50 nM; in assay [2], 22 nM; in assay [3] (setting [6]) it was 1830 nM; in assay [4] it was 131 nM; in assay [5] (setting [7]), 24200 nM.

Regarding `COc1cccc(-c2ccc3[nH]nc(-c4cncc(N5CCC(N)CC5)n4)c3c2)n1` [Example 63, 1-(6-(5-(6-methoxy-2-pyridinyl)-1H-indazol-3-yl)-2-pyrazinyl)-4-piperidinamine], the IC50 in assay [1] is 11 nM; in assay [2], 8 nM; in assay [3] (setting [6]), 1690 nM; in assay [4], 161 nM; in assay [5] (setting [7]) it was greater than 31600 nM.

With `NC1CCN(c2cncc(-c3n[nH]c4ccc(-c5cc([N+](=O)[O-])ccc5F)cc34)n2)CC1` [Example 84, 1-(6-(5-(2-fluoro-5-nitrophenyl)-1H-indazol-3-yl)-2-pyrazinyl)-4-piperidinamine], the IC50 in assay [1] was 9 nM; in assay [2] it was 4 nM; in assay [3] (setting [6]) it was 253 nM; in assay [4], 45 nM; in assay [5] (setting [7]) it was greater than 31600 nM.

Consider `CN(c1cncc(-c2n[nH]c3ccc(-c4c(F)cccc4F)cc23)n1)C1CCNCC1` [Example 17, 6-(5-(2,6-Difluorophenyl)-1H-indazol-3-yl)-N-methyl-N-(piperidin-4-yl)pyrazin-2-amine], for which the IC50 was found to be 5 nM in assay [1]; 4 nM in assay [2]; 424 nM in assay [3] (setting [6]); 43 nM in assay [4]; 11000 nM in assay [5] (setting [7]).

For `c1cn2cc(-c3ccc4[nH]nc(-c5cncc(O[C@@H]6CCCNC6)n5)c4c3)ncc2n1` [Example 138, 6-(3-(6-((3R)-3-piperidinyloxy)-2-pyrazinyl)-1H-indazol-5-yl)imidazo[1,2-a]pyrazine], the IC50 was 5 nM in assay [1]; 14 nM in assay [2]; 921 nM in assay [3] (setting [6]); 185 nM in assay [4]; greater than 31600 nM in assay [5] (setting [7]).

In the case of `Fc1cccc(F)c1-c1ccc2[nH]cc(-c3cncc(OC4CCNCC4)n3)c2c1` [Example 206, 5-(2,6-difluorophenyl)-3-(6-(4-piperidinyloxy)-2-pyrazinyl)-1H-indole], the IC50 in assay [1] was 2 nM; in assay [2], 6 nM; in assay [3] (setting [6]), 326 nM; in assay [4], 54 nM; in assay [5] (setting [7]) it was 20400 nM.

Take `CC(C)Oc1cc(-c2ccc3[nH]nc(-c4cncc(O[C@@H]5CCCNC5)n4)c3c2)ccn1` [Example 143, 5-(2-(1-methylethoxy)-4-pyridinyl)-3-(6-((3R)-3-piperidinyloxy)-2-pyrazinyl)-1H-indazole]: the IC50 was 5 nM in assay [1]; 25 nM in assay [2]; 873 nM in assay [3] (setting [6]); 34 nM in assay [4]; greater than 31600 nM in assay [5] (setting [7]).

Consider `Fc1cccc(F)c1-c1ccc2[nH]cc(-c3nccc(N[C@@H]4CCCNC4)n3)c2c1` [Example 24, (R)-2-(5-(2,6-difluorophenyl)-1H-indol-3-yl)-N-(piperidin-3-yl)pyrimidin-4-amine], for which the IC50 in assay [1] is 18 nM; in assay [2], 23 nM; in assay [3] it was 497 nM; in assay [4], 87 nM; in assay [5], greater than 31600 nM.

In the case of `CC(C)NC(=O)c1ccc(F)c(-c2ccc3[nH]nc(-c4cncc(N5CCC(N)CC5)n4)c3c2)c1` [Example 44, 3-(3-(6-(4-amino-1-piperidinyl)-2-pyrazinyl)-1H-indazol-5-yl)-4-fluoro-N-(1-methylethyl)benzamide], the IC50 in assay [1] came out at 7 nM; in assay [2] it was 4 nM; in assay [3] (setting [6]), 932 nM; in assay [4], 5 nM; in assay [5] (setting [7]), 4580 nM.
